Test results reported in ChEMBL document CHEMBL4627307, “One-pot synthesis of thioxo-tetrahydropyrimidine derivatives as potent β-glucuronidase inhibitor, biological evaluation, molecular docking and molecular dynamics studies” (Bioorg Med Chem, 2020).

Target: T1, Beta-glucuronidase (Homo sapiens, UniProt P08236)
T1 sequence (P08236 whole entry): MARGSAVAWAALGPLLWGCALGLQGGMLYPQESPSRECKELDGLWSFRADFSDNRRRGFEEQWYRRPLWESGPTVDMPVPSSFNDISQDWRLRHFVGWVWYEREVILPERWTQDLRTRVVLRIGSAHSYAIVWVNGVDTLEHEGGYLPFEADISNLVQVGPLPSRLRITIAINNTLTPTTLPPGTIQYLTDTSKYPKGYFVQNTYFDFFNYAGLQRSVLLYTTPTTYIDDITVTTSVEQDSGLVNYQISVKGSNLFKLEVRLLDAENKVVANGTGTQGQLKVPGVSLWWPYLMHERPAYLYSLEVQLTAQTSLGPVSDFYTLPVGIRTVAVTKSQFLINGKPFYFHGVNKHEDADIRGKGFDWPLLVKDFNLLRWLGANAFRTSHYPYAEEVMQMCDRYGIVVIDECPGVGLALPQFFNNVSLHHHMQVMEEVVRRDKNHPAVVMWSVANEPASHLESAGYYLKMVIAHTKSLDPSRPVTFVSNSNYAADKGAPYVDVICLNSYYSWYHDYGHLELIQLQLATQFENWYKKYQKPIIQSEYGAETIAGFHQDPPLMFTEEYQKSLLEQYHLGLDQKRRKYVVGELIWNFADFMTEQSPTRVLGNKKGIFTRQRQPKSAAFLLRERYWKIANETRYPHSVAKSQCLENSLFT
Test: Inhibition of beta-glucuronidase (unknown origin) using p-nitrophenyl-beta-D-glucuronide as substrate pre-incubated for 30 mins followed by substrate addition by spectrophotometric method

CCN(CC)C(=O)C1=C(C)N=C(S)NC1c1cccs1 (stereo unspecified) showed an IC50 of 350 nM.
